Key:
HDAC6 [1] = target: T1, HDAC6 (Homo sapiens, UniProt Q9UBN7); assay: In vitro HDAC6 fluorogenic enzymatic assay; assay type: biochemical; design: purchased BPS Bioscience #50076 (Fluorogenic Assay Kit); conditions: for IC50: recombinant human HDAC6, dose-response 300 µM to 135 nM; for HDAC6 activity at the highest tested concentration: 300 µM, remaining enzyme activity, called inactive
T1 sequence (Q9UBN7 1-1215): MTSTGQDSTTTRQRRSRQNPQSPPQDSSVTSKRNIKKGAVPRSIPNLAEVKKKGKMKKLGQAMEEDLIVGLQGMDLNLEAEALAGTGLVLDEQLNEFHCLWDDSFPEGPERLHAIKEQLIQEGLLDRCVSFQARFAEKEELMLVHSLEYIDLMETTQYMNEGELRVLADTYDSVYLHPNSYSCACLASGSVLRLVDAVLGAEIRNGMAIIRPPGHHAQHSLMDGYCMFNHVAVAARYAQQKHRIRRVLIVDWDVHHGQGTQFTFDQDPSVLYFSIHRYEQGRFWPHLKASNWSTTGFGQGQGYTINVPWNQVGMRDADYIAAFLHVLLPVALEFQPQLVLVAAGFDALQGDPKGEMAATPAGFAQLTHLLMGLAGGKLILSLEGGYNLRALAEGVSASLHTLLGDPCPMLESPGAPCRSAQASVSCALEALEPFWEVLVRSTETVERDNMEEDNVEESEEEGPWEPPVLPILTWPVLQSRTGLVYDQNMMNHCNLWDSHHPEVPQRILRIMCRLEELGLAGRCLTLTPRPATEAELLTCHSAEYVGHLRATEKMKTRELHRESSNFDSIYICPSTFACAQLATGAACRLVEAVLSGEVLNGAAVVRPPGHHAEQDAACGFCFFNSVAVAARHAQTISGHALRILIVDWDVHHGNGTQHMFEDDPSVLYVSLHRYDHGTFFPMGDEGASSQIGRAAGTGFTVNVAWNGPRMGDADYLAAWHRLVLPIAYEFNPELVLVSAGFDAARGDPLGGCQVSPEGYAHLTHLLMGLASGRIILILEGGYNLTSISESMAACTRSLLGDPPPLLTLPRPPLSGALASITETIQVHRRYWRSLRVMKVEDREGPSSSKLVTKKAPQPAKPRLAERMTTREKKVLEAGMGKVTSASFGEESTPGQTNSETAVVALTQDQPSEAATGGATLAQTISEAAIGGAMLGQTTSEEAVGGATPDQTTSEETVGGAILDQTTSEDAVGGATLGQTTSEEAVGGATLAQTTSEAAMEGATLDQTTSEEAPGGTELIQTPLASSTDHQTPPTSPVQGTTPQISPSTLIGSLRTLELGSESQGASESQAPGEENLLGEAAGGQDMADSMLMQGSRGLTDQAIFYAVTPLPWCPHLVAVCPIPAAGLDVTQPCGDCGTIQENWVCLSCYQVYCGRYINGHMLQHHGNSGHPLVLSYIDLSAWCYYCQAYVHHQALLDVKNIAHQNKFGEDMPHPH

HDAC6 [2] = system: HDAC6; design: method as in ChEMBL (accessed on May 29th, 2020); conditions: ChEMBL ligands most similar to compound 13; ref ChEMBL (accessed on May 29th, 2020); cited from earlier work
[3] = Storage stability at solid state; assay type: physicochemical; conditions: room temperature and −20 °C
Text: In a recent study, we described the effect of different linker chemotypes on the potency and selectivity of a series of HDACi carrying a hydroxamate ZBG[6]. […] Being constituted by a small heteroaromatic ring with hydrogen bond acceptor and donor atoms, we hypothesised that the 3-hydroxy-isoxazole moiety could satisfy the pharmacophore requirements necessary for the coordination of the catalytic zinc ion of HDAC6. Therefore, in this work we investigated a series of 3-hydroxy-isoxazole derivatives bearing different aromatic or heteroaromatic linkers and various cap groups.

HDAC6 [4] = target: T1, HDAC6; assay: HDAC6 assay with acetylated p53 peptide (residues 379–382, RHKKAc-AMC) as substrate; assay type: biochemical
[5] = system: acetylation levels of histone H3 (HDAC1 target) in DU145 cells; assay: Western blot of histone H3 acetylation in DU145 cells; assay type: cell-based, human; conditions: 24 h, 10 µM
Description: (§1) The results corroborate the inhibitory activity of 17, 23, 25 and 27 at concentrations lower than 10 µM. […] HDACs contribution to CRPC is known[20] and the possibility to arrest CRPC proliferation by acting on HDAC targets is expanding in the scientific literature[21]^,[22]. After administration of the selected compounds for 24 h at 10 µM concentration, the effect on the acetylation levels of histone H3 and α-tubulin (respectively, HDAC1 and HDAC6 targets) was investigated. […] Lastly, in the same cell line, the anti-proliferative effect was measured in dose and time dependent manner (Figure S4).
Figure S3. Western blotting analysis of the tested and reference compounds SAHA and Tubastatin A on acetylation levels of histone H3 and α-tubulin in DU145 cells. GAPDH and H4 were used as a loading control. Densitometric values were analyzed using ImageJ Software and are reported on the top of bands as the ratio between loading control and acetylated target.
(1 picture or pasted object on this page, not shown here) […]
1.4 Western blot analysis
The prostate cancer cell line DU145 (ATCC) was grown in RPMI medium (Euroclone, Milan, Italy) with 10% fetal bovine serum (Euroclone), 2 mM L-glutamine (Euroclone), and antibiotics (100 U/mL penicillin, […] streptomycin) (Euroclone). Cells were stimulated with drugs for […]
Total Protein Extraction and western blot
After the induction with the test compounds at the indicated times and concentrations, DU145 cells were then harvested, washed with phosphate-buffered saline (PBS) (Euroclone), and lysed for 15 min at 4 °C in lysis extraction buffer with protease and phosphatase inhibitors (50 mM Tris -HCl pH 8.0, 150 mM NaCl, 1% NP40, 10 mM sodium fluoride, 0.1 mM sodium orthovanadate, […] phenylmethylsulfonyl fluoride 58 (PMSF), 20 g/mL aprotinin, […] leupeptin, […] antipain, 10 mM p -nitrophenyl phosphate, […] pepstatin A and 20 nM okada ic acid). Cells were vortexed then centrifuged at 13000 rpm for 30 min at 4 °C. Bradford assay (Biorad, Italy) was used to quantify protein concentration. […] The immune complexes were first detected with horseradish peroxidase-conjugated species-specific secondary antiserum (Bio-Rad Laboratories, Milan, Italy), and then by an enhanced chemiluminescence reaction (Bio-Rad Laboratories, Milan, Italy). […]
were harvested and washed twice with cold 1× PBS and lysed in Triton extraction buffer (TEB; PBS containing 0.5% Triton X 100 (v/v), 2 mM PMSF, and 0.02% (w/v) NaN3) for 10 min on ice, with gentle stirring. […] The samples were then centrifuged at 2000 rpm for 10 min at 4 °C; the concentration of protein in the supernatant was determined […]
using a Bradford assay (Bio-Rad, CA, USA). […] Semi-quantitative analysis was performed using ImageJ software. […]

DU145 cells = assay: Anti-proliferative assay (MTT cell viability); assay type: cell-based, human; conditions: for effect on proliferation rate of DU145 cells: 50 µM, MTT, 24, 48, 72 h
Description: as §1
Figure S4. Cell viability assay (MTT) of the tested compounds in human prostate cancer cell lines (DU145). Cells were treated with 4 increasing concentrations (1, 5, 10, and 50 µM) of tested compounds, monitored at 24, 48, and 72 hours and tested with SAHA and Tubastatin A as reference compounds. Data are expressed as mean ± SEM. […]
1.5 Anti-proliferative assay
Cell viability was determined on DU145 cell line using Thiazolyl Blue Tetrazolium Bromide [3-(4,5-dimethylthiazol-2-yl)-2,5-diphenyltetrazolium bromide] (MTT; Sigma-Aldrich) assay after treatment with new compounds at indicated concentrations. A total of 2 × 10^4 cells/well were plated in a 96-well plate and treated, in duplicates, with new compounds at different concentrations for 24, 48, and 72 hours. Absorbance was read at a wavelength of 570 nm with a TECAN M-200 reader (Tecan, Männedorf, Switzerland).

Compound | IC50 (HDAC6 [1]) [µM] | IC50 (HDAC6 [2]) [µM] | also measured
Oc1cc(-c2ccco2)on1 [Compound 26] | > 100 | – | –
O=C(NO)c1ccccc1 [CHEMBL16300] | – | 0.115 | –
O=C(NO)C1=CCCCC1 [CHEMBL2333344] | – | 0.012 | –
O=C(NO)C1=CCCC1 [CHEMBL2333346] | – | 0.03 | –
CNC(=O)c1ccc(C(=O)NO)cc1 [CHEMBL2333343] | – | 0.028 | –
Oc1cc(-c2ccc(Br)o2)on1 [Compound 21] | 29.6 | – | –
O=C(C#Cc1ccccc1)NO [Compound 12, N-hydroxy-3-phenyl-propiolamide] | – | – | stability on storage [3]: converted into 13 over time; melting point: 174 to 176 °C
Cc1cccc(C(=O)NO)c1 [CHEMBL2381522] | – | 0.65 | –
O=C(NO)C1CCCCC1 [CHEMBL2333345] | – | 0.376 | –
Cc1ccc(-c2cc(O)no2)s1 [Compound 24] | 21.9 | – | –
Oc1cc(-c2cccc(C(F)(F)F)c2)on1 [Compound 14] | > 300 | – | –
CNc1ccc(C(=O)NO)cc1 [CHEMBL3415449] | – | 1.77 | –
Oc1cc(-c2ccc(OCc3ccc(Cl)c(Cl)c3)cc2)on1 [Compound 27] | 8.2 | – | concentration showing inhibitory activity on HDAC6 (HDAC6 [4]): below 10 µM; effect on acetylation levels of histone H3 [5]: no effect; effect on proliferation rate of DU145 cells (DU145 cells): reduced the proliferation rate; anti-proliferative activity at the lowest concentrations (DU145 cells; DU145, late phases, lowest concentrations (tested 1, 5, 10, 50 µM)): exerted anti-proliferative activity
Oc1cc(-c2ccc(Br)cn2)on1 [Compound 28] | 82.3 | – | –

Continued, in another order:

IC50 (HDAC6 [1]) [µM] | Compound | IC50 (HDAC6 [2]) [µM] | also measured
> 300 | Oc1cc(-c2ccccc2Cl)on1 [Compound 15] | – | –
16.4 | O=[N+]([O-])c1ccc(-c2cc(O)no2)cc1 [Compound 18] | – | –
> 300 | COc1ccc(-c2cc(O)no2)cc1 [Compound 16] | – | –
73.3 | Oc1cc(-c2cccc(Br)c2)on1 [Compound 22] | – | –
98.1 | O=c1cc(-c2ccccc2)o[nH]1 [Compound 13, 3-hydroxy-5-phenyl-isoxazole] | – | stability on storage [3]: stable
> 300 | Oc1cc(-c2cccc3ccccc23)on1 [Compound 20] | – | HDAC6 activity at the highest tested concentration (HDAC6 [1]): more than 55%
> 300 | O=C(O)c1cc(-c2ccccc2)on1 [Compound 29, 5-phenylisoxazole-3-carboxylic acid] | – | HDAC6 activity at the highest tested concentration (HDAC6 [1]): more than 55%; HDAC6 inhibition (in words) (HDAC6 [1]; in vitro assays, Table 1): inactive
1.3 | Oc1cc(-c2ccc(OCc3ccccc3)cc2)on1 [Compound 17] | – | concentration showing inhibitory activity on HDAC6 (HDAC6 [4]): below 10 µM; effect on acetylation levels of histone H3 [5]: no effect; effect on proliferation rate of DU145 cells (DU145 cells): reduced the proliferation rate
> 300 | Oc1cc(-c2ccc3ccccc3c2)on1 [Compound 19] | – | HDAC6 activity at the highest tested concentration (HDAC6 [1]): more than 55%
